From patent publication US11459324B2, “O-glycoprotein-2-acetamido-2-deoxy-3-D-glycopyranosidase inhibitors” (BIOGEN MA INC., priority 2018, dated 2022) come the findings set out here.

pIC50: −log10 of the molar value. Where only a bound is given, the exact number is not on record here.

For the test, the target named is T1, Recombinant full length human OGA enzyme (Homo sapiens, UniProt O60502).
T1 construct: Recombinant full length human OGA enzyme was purchased from Origene; purchased Origene
T1 sequence (O60502 1-916): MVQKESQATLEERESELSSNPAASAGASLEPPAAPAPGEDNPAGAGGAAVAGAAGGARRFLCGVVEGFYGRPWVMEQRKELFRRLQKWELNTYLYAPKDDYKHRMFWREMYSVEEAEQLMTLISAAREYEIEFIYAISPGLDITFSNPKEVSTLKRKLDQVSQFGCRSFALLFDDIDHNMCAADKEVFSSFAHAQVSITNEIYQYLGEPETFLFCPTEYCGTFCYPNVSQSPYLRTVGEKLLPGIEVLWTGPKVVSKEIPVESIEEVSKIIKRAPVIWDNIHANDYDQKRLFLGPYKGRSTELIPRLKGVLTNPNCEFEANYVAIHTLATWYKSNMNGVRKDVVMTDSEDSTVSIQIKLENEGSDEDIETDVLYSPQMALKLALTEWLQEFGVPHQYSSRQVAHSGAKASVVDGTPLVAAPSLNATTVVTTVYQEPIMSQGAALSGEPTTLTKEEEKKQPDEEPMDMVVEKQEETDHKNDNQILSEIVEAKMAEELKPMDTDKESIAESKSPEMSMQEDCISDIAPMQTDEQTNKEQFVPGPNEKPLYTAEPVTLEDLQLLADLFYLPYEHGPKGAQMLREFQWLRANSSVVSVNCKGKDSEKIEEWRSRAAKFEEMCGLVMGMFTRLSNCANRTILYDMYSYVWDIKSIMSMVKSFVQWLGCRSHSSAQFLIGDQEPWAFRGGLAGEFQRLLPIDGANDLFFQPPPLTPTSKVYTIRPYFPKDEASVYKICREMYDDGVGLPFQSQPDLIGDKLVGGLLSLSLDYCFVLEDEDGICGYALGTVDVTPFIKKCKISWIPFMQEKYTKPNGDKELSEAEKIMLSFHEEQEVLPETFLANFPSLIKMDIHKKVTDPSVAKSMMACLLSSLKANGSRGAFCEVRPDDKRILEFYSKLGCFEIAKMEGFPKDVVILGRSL
The experiment in a line: OGA Enzyme Inhibition Biochemical Assay. The settings on record: 1 nM OGA, 100 μM 4-MUGlcNAc (Km), pH 6.4, 90 minutes at room temperature, 10-point dose-response from 20 μM. The method, then:
OGA Enzyme Inhibition Biochemical Assay
Recombinant full length human OGA enzyme was purchased from Origene. 4-MUGlCNAc substrate was purchased from Sigma. All other reagents were purchased from Sigma or Fisher. Assay buffer consists of the McIlvaine buffer system, pH 6.4 (0.2M Na2HPO4 mixed with 0.1M citric acid) and 0.01% BSA. Reactions consist of 1 nM OGA, 100 μM 4-MUGlcNAc (Km), and compound in a final volume of 10 μl. Reactions were incubated for 90 minutes at room temperature and quenched with 40 μl of 3M glycine, pH 10 and read on a Perkin Elmer Envision plate reader (Ex: 355 nm/Em: 460 nm). Compounds were tested with a 10-point dose-response starting from 20 μM with a 4-fold dilution. Data was fit using GraphPad Prism using a 4-parameter fit with variable slope.
With `CC(=O)Nc1nc(F)c(CN2C[C@@H](Cc3noc(C)n3)CC[C@@H]2C)s1` [Example 4-16, N-(4-fluoro-5-(((2S,5R)-2-methyl-5-((5-methyl-1,2,4-oxadiazol-3-yl)methyl)piperidin-1-yl)methyl)thiazol-2-yl)acetamide], the negative-log IC50 (pIC50) (as a rule, the IC50 on a negative log10 scale, so that one unit is a factor of ten) is > 9.00.

Regarding `CC(=O)Nc1nc(Cl)c(CN2CC[C@H](Cc3cc(C)nc(C)c3)C2)s1` [Example 3-38, (S)—N-(4-chloro-5-((3-((2,6-dimethylpyridin-4-yl)methyl)pyrrolidin-1-yl)methyl)thiazol-2-yl)acetamide], the pIC50 is 6.82.

Take `CC(=O)Nc1ncc(CN2CC(Cc3ncc(F)cn3)CC2C)s1` (centres unmarked) [Example 2-17, N-(5-((4-((5-fluoropyrimidin-2-yl)methyl)-2-methylpyrrolidin-1-yl)methyl)thiazol-2-yl)acetamide]: the pIC50 was 8.70.

Turning to `CC(=O)Nc1nc(F)c(CN2C[C@@H](Cc3noc(C)n3)C[C@@H]2C)s1` (single isomer, unassigned) [Example 4-12 Peak 1], the negative logarithm of the IC50 (pIC50) is > 9.00.

With `CC(=O)Nc1ncc(CN2C[C@H](Cc3noc(C)n3)C[C@@H]2C)s1` [Example 4-14, N-(5-(((2S,4S)-2-methyl-4-((5-methyl-1,2,4-oxadiazol-3-yl)methyl)pyrrolidin-1-yl)methyl)thiazol-2-yl)acetamide], the pIC50 was 8.42.

For `COc1nc(C[C@H]2CCN(Cc3cnc(NC(C)=O)s3)C2)nc(C)c1F` [Example 3-9, (R)-N-(5-((3-((5-fluoro-4-methoxy-6-methylpyrimidin-2-yl)methyl)pyrrolidin-1-yl)methyl)thiazol-2-yl)acetamide], the pIC50 was > 9.00.

On to `CC(=O)Nc1ncc(CN2CCCC(Cn3ccnn3)C2)s1` (centres unmarked) [Example 4-20, N-(5-((3-((1H-1,2,3-triazol-1-yl)methyl)piperidin-1-yl)methyl)thiazol-2-yl)acetamide], for which the pIC50 was 7.26.

As for `CC(=O)Nc1ncc(CN2CCCC(Cn3cc(C4CCC4)cn3)C2)s1` (centres unmarked) [Example 4-5, N-(5-((3-((4-cyclobutyl-1H-pyrazol-1-yl)methyl)piperidin-1-yl)methyl)thiazol-2-yl)acetamide], the pIC50 was 6.18.

Take `CCC(=O)Nc1nc(F)c(CN2CCC[C@H](Cc3cc(OC)ncn3)C2)s1` [Example 3-49, (R)-N-(4-fluoro-5-((3-((6-methoxypyrimidin-4-yl)methyl)piperidin-1-yl)methyl)thiazol-2-yl)propionamide]: the pIC50 was 8.66.

Consider `CC(=O)Nc1ncc(CN2CC[C@@H](C)[C@@H](Cc3ncc(F)cn3)C2)s1` (single isomer, unassigned) [Example 2-40], for which the pIC50 was 7.57.

Turning to `CC(=O)Nc1nc(F)c(CN2C[C@H](Cc3ncc(F)cn3)C[C@H]2C)s1` [Example 3-39, N-(4-fluoro-5-(((2R,4S)-4-((5-fluoropyrimidin-2-yl)methyl)-2-methylpyrrolidin-1-yl)methyl)thiazol-2-yl)acetamide], the pIC50 was 6.51.

In the case of `CC(=O)Nc1ncc(CN2CCCC(Cn3cc(F)cn3)C2)s1` (centres unmarked) [Example 4-1, N-(5-((3-((4-fluoro-1H-pyrazol-1-yl)methyl)piperidin-1-yl)methyl)thiazol-2-yl)acetamide], the pIC50 was 6.30.

Take `COc1ccnc(C[C@H]2CCN(Cc3cnc(NC(C)=O)s3)C2)n1` [Example 3-12, (R)-N-(5-((3-((4-methoxypyrimidin-2-yl)methyl)pyrrolidin-1-yl)methyl)thiazol-2-yl)acetamide]: the pIC50 is 8.05.

As for `CC(=O)Nc1nc(F)c(CN2CC[C@@H](Cc3ncc(F)cn3)C2)s1` [Example 3-36, (S)—N-(4-fluoro-5-((3-((5-fluoropyrimidin-2-yl)methyl)pyrrolidin-1-yl)methyl)thiazol-2-yl)acetamide], the pIC50 is 7.11.

Consider `CC(=O)Nc1ncc(CN2CCC(Cc3ccccn3)C2)s1` (centres unmarked) [Example 2-15, N-(5-((3-(pyridin-2-ylmethyl)pyrrolidin-1-yl)methyl)thiazol-2-yl)acetamide], for which the pIC50 is 7.08.

For `CC(=O)Nc1nc(F)c(CN2CCC[C@H](Cc3cc(C)nc(C)n3)C2)s1` [Example 3-21, (R)-N-(5-((3-((2,6-dimethylpyrimidin-4-yl)methyl)piperidin-1-yl)methyl)-4-fluorothiazol-2-yl)acetamide], the pIC50 is > 9.00.

On to `CC(=O)Nc1nc(F)c(CN2CC[C@H](Cc3ncc(F)cn3)C2)s1` [Example 3-26, (R)-N-(4-fluoro-5-((3-((5-fluoropyrimidin-2-yl)methyl)pyrrolidin-1-yl)methyl)thiazol-2-yl)acetamide], for which the pIC50 is 8.21.

Turning to `COc1cncc(CC2CCCN(Cc3cnc(NC(C)=O)s3)C2)c1` (centres unmarked) [Example 1-8, N-(5-((3-((5-methoxypyridin-3-yl)methyl)piperidin-1-yl)methyl)thiazol-2-yl)acetamide], the pIC50 is 7.54.

On to `COc1cnn(CC2CCCN(Cc3cnc(NC(C)=O)s3)C2)c1` (centres unmarked) [Example 4-8, N-(5-((3-((4-methoxy-1H-pyrazol-1-yl)methyl)piperidin-1-yl)methyl)thiazol-2-yl)acetamide], for which the pIC50 is 6.44.

`CC(=O)Nc1ncc(CN2CCCC(Cc3nc(C)cs3)C2)s1` (centres unmarked) [Example 1-34, N-(5-((3-((4-methylthiazol-2-yl)methyl)piperidin-1-yl)methyl)thiazol-2-yl)acetamide]: the pIC50 is 8.30.

On to `CC(=O)Nc1ncc(CN2CCCC(Cc3ccncc3)C2)s1` (centres unmarked) [Example 1-40, N-(5-((3-(pyridin-4-ylmethyl)piperidin-1-yl)methyl)thiazol-2-yl)acetamide], for which the pIC50 was 8.40.

Consider `CC(=O)Nc1ncc(CN2CCC(F)(F)C(Cc3ncc(F)cn3)C2)s1` (centres unmarked) [Example 2-14, N-(5-((4,4-difluoro-3-((5-fluoropyrimidin-2-yl)methyl)piperidin-1-yl)methyl)thiazol-2-yl)acetamide], for which the pIC50 was 7.92.

For `CC(=O)Nc1ncc(CN2C[C@H](Cc3ncc(F)cn3)C[C@@H]2C(F)(F)F)s1` (single isomer, unassigned) [Example 2-44], the pIC50 was < 4.70.

In the case of `CC(=O)Nc1nc(F)c(CN2CCC[C@H](Cc3ccnc(C)c3)C2)s1` [Example 3-18, (R)-N-(4-fluoro-5-((3-((2-methylpyridin-4-yl)methyl)piperidin-1-yl)methyl)thiazol-2-yl)acetamide], the pIC50 is > 9.00.

As for `CC(=O)Nc1ncc(CN2C[C@@H](Cc3ncc(F)cn3)C[C@@H]2C)s1` (single isomer, unassigned) [Example 2-21], the pIC50 is 6.97.

Consider `CC(=O)Nc1ncc(CN2CCC[C@H](Cc3ccnc(C)n3)C2)s1` [Example 3-4, (R)-N-(5-((3-((2-methylpyrimidin-4-yl)methyl)piperidin-1-yl)methyl)thiazol-2-yl)acetamide], for which the pIC50 is > 9.00.

With `CC(=O)Nc1ncc(CN2CCCC(Cc3ccccc3)C2)s1` (centres unmarked) [Example 1-28, N-(5-((3-benzylpiperidin-1-yl)methyl)thiazol-2-yl)acetamide], the pIC50 is 7.28.

`CC(=O)Nc1ncc(CN2CCC(Cc3ccc(F)cn3)C2)s1` (centres unmarked) [Example 1-25, N-(5-((3-((5-fluoropyridin-2-yl)methyl)pyrrolidin-1-yl)methyl)thiazol-2-yl)acetamide]: the negative logarithm of the IC50 (pIC50) was 6.66.

As for `CC(=O)Nc1ncc(CN2CCCC(Cc3nccn3C)C2)s1` (centres unmarked) [Example 4-22, N-(5-((3-((1-methyl-1H-imidazol-2-yl)methyl)piperidin-1-yl)methyl)thiazol-2-yl)acetamide], the pIC50 is 7.37.

`CC(=O)Nc1ncc(CN2CCCC(Cn3cc(Br)cn3)C2)s1` (centres unmarked) [Example 4-9, N-(5-((3-((4-bromo-1H-pyrazol-1-yl)methyl)piperidin-1-yl)methyl)thiazol-2-yl)acetamide]: the pIC50 was 6.51.

Take `CC(=O)Nc1ncc(CN2CCC[C@H]([C@H](C)c3ncc(F)cn3)C2)s1` (single isomer, unassigned) [Example 2-32]: the pIC50 was 6.48.

For `COc1ccc(CC2CCN(Cc3cnc(NC(C)=O)s3)C2)cc1` (centres unmarked) [Example 1-15, N-(5-((3-(4-methoxybenzyl)pyrrolidin-1-yl)methyl)thiazol-2-yl)acetamide], the pIC50 is 7.34.
